Laboratory results from PubChem BioAssay (NCI).
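How tested: cells in 96-well plates exposed to compound for 48 hours at five concentrations. Abbreviation: GI50, concentration required for 50% inhibition of growth. At the TGI there is no net growth.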

Legend:
Test in all cases: NCI anticancer screen, dose series, 48 h
[1] = tested on: RPMI-8226 leukemia
[2] = tested on: MDA-MB-435
[3] = tested on: NCI-H23 lung
[4] = tested on: HCT-15 colon
[5] = tested on: HOP-62 NSCLC
[6] = tested on: RXF 393 renal
[7] = tested on: A549 NSCLC
[8] = tested on: T-47D breast
[9] = tested on: OVCAR-3 ovarian
[10] = tested on: COLO 205 colon
[11] = tested on: U251 CNS
[12] = tested on: SK-OV-3 ovarian
[13] = tested on: K-562 leukemia
[14] = tested on: SNB-19 CNS
[15] = tested on: OVCAR-8 ovarian
[16] = tested on: UO-31 renal
[17] = tested on: TK-10 renal
[18] = tested on: ACHN renal
[19] = tested on: HS 578T breast
[20] = tested on: SK-MEL-2 melanoma
[21] = tested on: SF-295 CNS
[22] = tested on: SNB-75 CNS
[23] = tested on: SK-MEL-28 melanoma
[24] = tested on: HCC-2998 colon
[25] = tested on: PC-3 prostate
[26] = tested on: CAKI-1 renal
[27] = tested on: MOLT-4 leukemia
[28] = tested on: CCRF-CEM leukemia
[29] = tested on: NCI/ADR-RES ovarian
[30] = tested on: SW-620 colon
[31] = tested on: M14 melanoma
[32] = tested on: 786-0 renal
[33] = tested on: SR leukemia
[34] = tested on: MALME-3M melanoma
[35] = tested on: HOP-92 NSCLC
[36] = tested on: KM12 colon
[37] = tested on: EKVX NSCLC
[38] = tested on: SF-268 CNS
[39] = tested on: HCT-116 colon
[40] = tested on: HT29 colon
[41] = tested on: DU-145 prostate
[42] = tested on: NCI-H226 lung
[43] = tested on: A498 renal
[44] = tested on: UACC-62 melanoma
[45] = tested on: IGROV1 ovarian
[46] = tested on: HL-60(TB) leukemia
[47] = tested on: MCF7 breast
[48] = tested on: UACC-257 melanoma
[49] = tested on: LOX IMVI melanoma
[50] = tested on: OVCAR-4 ovarian
[51] = tested on: NCI-H460 lung
[52] = tested on: SN12C renal
[53] = tested on: BT-549 breast
[54] = tested on: MDA-MB-231 breast
[55] = tested on: SF-539 CNS
[56] = tested on: NCI-H522 lung
[57] = tested on: OVCAR-5 ovarian
[58] = tested on: SK-MEL-5 melanoma

SMILES: O=[N+]([O-])c1ccc(-c2nc(N(CCO)CCO)c3ccccc3n2)o1
- GI50 [1]: 567 nM
- TGI [1]: > 21300 nM
- GI50 [2]: 309 nM
- TGI [2]: 1270 nM
- GI50 [3]: 100 nM
- TGI [3]: 314 nM
- GI50 [4]: 176 nM
- TGI [4]: 1710 nM
- GI50 [5]: 145 nM
- TGI [5]: 671 nM
- GI50 [6]: 159 nM
- TGI [6]: 340 nM
- GI50 [7]: 128 nM
- TGI [7]: 822 nM
- GI50 [8]: 319 nM
- TGI [8]: 5020 nM
- GI50 [9]: 235 nM
- TGI [9]: 1430 nM
- GI50 [10]: 118 nM
- TGI [10]: 264 nM
- GI50 [11]: 229 nM
- TGI [11]: 1340 nM
- GI50 [12]: 156 nM
- TGI [12]: 401 nM
- GI50 [13]: 337 nM
- TGI [13]: > 20600 nM
- GI50 [14]: 229 nM
- TGI [14]: 1410 nM
- GI50 [15]: 262 nM
- TGI [15]: 2880 nM
- GI50 [16]: 213 nM
- TGI [16]: 714 nM
- GI50 [17]: 286 nM
- GI50 [18]: 159 nM
- TGI [18]: 631 nM
- GI50 [19]: 346 nM
- TGI [19]: 1990 nM
- GI50 [20]: 158 nM
- TGI [20]: 361 nM
- GI50 [21]: 192 nM
- TGI [21]: 1030 nM
- GI50 [22]: 160 nM
- TGI [22]: 588 nM
- GI50 [23]: 877 nM
- TGI [23]: 2410 nM
- GI50 [24]: 194 nM
- TGI [24]: 442 nM
- GI50 [25]: 293 nM
- TGI [25]: 2840 nM
- GI50 [26]: 282 nM
- TGI [26]: 3330 nM
- GI50 [27]: 508 nM
- TGI [27]: > 38900 nM
- GI50 [28]: 1140 nM
- TGI [28]: 64100 nM
- GI50 [29]: 956 nM
- TGI [29]: 7570 nM
- GI50 [30]: 265 nM
- TGI [30]: 2550 nM
- GI50 [31]: 143 nM
- TGI [31]: 316 nM
- GI50 [32]: 231 nM
- TGI [32]: 621 nM
- GI50 [33]: 88.1 nM
- GI50 [34]: 155 nM
- TGI [34]: 373 nM
- GI50 [35]: 247 nM
- TGI [35]: 831 nM
- GI50 [36]: 216 nM
- TGI [36]: 862 nM
- GI50 [37]: 464 nM
- TGI [37]: 4310 nM
- GI50 [38]: 211 nM
- TGI [38]: 1520 nM
- GI50 [39]: 232 nM
- TGI [39]: 1240 nM
- GI50 [40]: 184 nM
- TGI [40]: 3070 nM
- GI50 [41]: 35.2 nM
- TGI [41]: 303 nM
- GI50 [42]: 216 nM
- TGI [42]: 1050 nM
- GI50 [43]: 119 nM
- TGI [43]: 255 nM
- GI50 [44]: 196 nM
- TGI [44]: 477 nM
- GI50 [45]: 151 nM
- TGI [45]: 450 nM
- GI50 [46]: 311 nM
- TGI [46]: 2910 nM
- GI50 [47]: 41.9 nM
- TGI [47]: 397 nM
- GI50 [48]: 189 nM
- TGI [48]: 453 nM
- GI50 [49]: 269 nM
- TGI [49]: 1640 nM
- GI50 [50]: 208 nM
- TGI [50]: 1800 nM
- GI50 [51]: 53.7 nM
- TGI [51]: 380 nM
- GI50 [52]: 292 nM
- TGI [52]: 7720 nM
- GI50 [53]: 174 nM
- TGI [53]: 758 nM
- GI50 [54]: 1080 nM
- TGI [54]: 4250 nM
- GI50 [55]: 272 nM
- TGI [55]: 1240 nM
- GI50 [56]: 71.3 nM
- TGI [56]: 217 nM
- GI50 [57]: 562 nM
- TGI [57]: 5100 nM
- GI50 [58]: 112 nM
- TGI [58]: 244 nM
